Results as given in ChEMBL document CHEMBL1201862, “PubChem BioAssay data set” (2004).
Calls of active or inactive are those of the source.

Key:
Cytochrome P450 3A4 = Cytochrome P450 3A4 (Homo sapiens, UniProt P08684);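 note: CYP3A4 tested as one member of a cytochrome P450 panel screen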
Cytochrome P450 2C19 = Cytochrome P450 2C19 (Homo sapiens, UniProt P33261); test: Cytochrome panel assay with activity outcomes. Panel member name: p450-cyp2c19 Compounds with AC50 equal or less than 10 uM are considered active; format: functional
[1] = biological target: T1, Microphthalmia-associated transcription factor (Homo sapiens, UniProt O75030); test: TRPM1 promoter luciferase signal decrease, dose response, MITF inhibitor project, cell-based, SK-MEL-5, cherry-picked, set 3 (AID 493073); format: functional
T1 sequence (O75030 whole entry): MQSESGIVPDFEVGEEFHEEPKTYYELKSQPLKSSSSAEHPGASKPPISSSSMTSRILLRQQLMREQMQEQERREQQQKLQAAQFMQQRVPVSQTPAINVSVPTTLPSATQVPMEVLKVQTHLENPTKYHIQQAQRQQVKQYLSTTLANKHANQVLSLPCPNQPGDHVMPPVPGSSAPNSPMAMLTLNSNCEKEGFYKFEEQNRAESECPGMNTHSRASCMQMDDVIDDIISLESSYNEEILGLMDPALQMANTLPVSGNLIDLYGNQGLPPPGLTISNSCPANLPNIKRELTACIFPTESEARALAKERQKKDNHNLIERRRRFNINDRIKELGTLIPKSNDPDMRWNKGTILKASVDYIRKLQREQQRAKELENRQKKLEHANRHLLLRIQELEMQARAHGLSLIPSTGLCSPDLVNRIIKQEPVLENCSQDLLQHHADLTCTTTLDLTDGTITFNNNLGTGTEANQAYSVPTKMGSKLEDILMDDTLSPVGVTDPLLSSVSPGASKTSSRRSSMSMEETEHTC

[2] = NIH-3T3 fibroblast cytotoxicity, dose response, cytotoxicity control, cell-based, fluorescence, Alamar Blue, secondary assay (AID 2327); format: functional;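 note: NIH-3T3 mouse fibroblasts cultured with fluconazole at 8 µg/mL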
[3] = cytotoxicity toward DRD oncogenic fibroblasts, dose response, cell-based, non-viral oncogenic, luminescence (AID 1934); format: functional; conditions: Homo sapiens
BJ [4] = test: cells; format: functional, cell-based; conditions: Homo sapiens
BJ [5] = test: cytotoxicity toward BJ-TERT fibroblasts, dose response, cell-based, RAS-independent, luminescence (AID 1933); format: functional; conditions: Homo sapiens
BJ [6] = test: cytotoxicity toward BJ-TERT-LT-ST fibroblasts, dose response, cell-based, RAS-independent, luminescence (AID 1935); format: functional; conditions: Homo sapiens;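 note: BJ fibroblasts immortalized with TERT plus LT and ST oncogenes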
cells [7] = format: functional, cell-based
cells [8] = format: functional, cell-based; remark: listed apart in the source
INS1 = test: beta cell apoptosis inhibitors, cytokine rescue, dose response, luminescence, retest (AID 449756); format: functional, cell-based; conditions: Rattus norvegicus;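 note: cell death triggered by IL-1 beta plus TNF-alpha plus IFN-gamma mixture; protective hits raise ATP signal compared with cytokine alone wells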
[9] = C. albicans growth with fluconazole, confirmation, fluorescence, retest (AID 2467); format: functional, cell-based
[10] = biological target: DNA damage-inducible transcript 3 protein (Mus musculus, UniProt P35639); format: functional, Cricetulus griseus
Protein skinhead-1 = biological target: T2, Protein skinhead-1 (Caenorhabditis elegans, UniProt P34707); format: functional
T2 sequence (P34707 whole entry): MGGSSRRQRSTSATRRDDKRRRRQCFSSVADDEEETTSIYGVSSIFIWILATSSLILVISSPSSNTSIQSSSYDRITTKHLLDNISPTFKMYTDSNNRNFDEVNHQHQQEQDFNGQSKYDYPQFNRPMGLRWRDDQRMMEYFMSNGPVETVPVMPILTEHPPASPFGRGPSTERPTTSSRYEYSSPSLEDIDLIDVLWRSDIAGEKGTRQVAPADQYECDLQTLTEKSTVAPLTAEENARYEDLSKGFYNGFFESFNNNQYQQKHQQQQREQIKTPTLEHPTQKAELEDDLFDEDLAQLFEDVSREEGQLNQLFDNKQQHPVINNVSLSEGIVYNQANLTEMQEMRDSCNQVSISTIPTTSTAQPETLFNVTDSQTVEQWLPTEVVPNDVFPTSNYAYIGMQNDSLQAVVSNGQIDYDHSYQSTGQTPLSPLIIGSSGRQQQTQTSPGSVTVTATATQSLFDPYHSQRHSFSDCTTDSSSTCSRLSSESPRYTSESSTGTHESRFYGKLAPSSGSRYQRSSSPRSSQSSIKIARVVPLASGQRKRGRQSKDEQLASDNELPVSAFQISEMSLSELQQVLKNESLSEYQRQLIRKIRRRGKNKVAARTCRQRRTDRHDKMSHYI

Cytochrome P450 1A2 = biological target: T3, Cytochrome P450 1A2 (Homo sapiens, UniProt P05177);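 note: PubChem cytochrome P450 panel assay, CYP1A2 panel member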
T3 sequence (P05177 whole entry): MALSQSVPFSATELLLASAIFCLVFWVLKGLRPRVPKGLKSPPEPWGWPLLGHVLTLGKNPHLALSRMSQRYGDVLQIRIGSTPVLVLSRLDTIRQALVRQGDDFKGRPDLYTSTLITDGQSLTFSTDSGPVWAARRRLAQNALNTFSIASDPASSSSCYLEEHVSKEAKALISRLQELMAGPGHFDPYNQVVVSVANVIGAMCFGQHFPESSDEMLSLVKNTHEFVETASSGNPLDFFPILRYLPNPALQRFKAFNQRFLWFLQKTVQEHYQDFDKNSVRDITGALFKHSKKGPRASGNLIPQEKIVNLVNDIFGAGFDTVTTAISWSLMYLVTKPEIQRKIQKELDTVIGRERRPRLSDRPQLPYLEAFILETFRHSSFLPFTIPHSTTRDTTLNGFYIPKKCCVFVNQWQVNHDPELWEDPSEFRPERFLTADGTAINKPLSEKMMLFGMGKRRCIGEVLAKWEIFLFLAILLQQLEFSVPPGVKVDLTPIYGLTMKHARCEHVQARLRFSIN

HEK293 [11] = test: inhibitors of LMP1-driven NF-kB reporter, dose response, cell-based, HEK293, luciferase, cherry-pick (AID 588343); format: functional; conditions: Homo sapiens
[12] = biological target: Dual specificity tyrosine-phosphorylation-regulated kinase 1A (Rattus norvegicus, UniProt Q63470); format: biochemical, Homo sapiens
HEK293 [13] = test: cells; format: functional, cell-based; conditions: Homo sapiens
[14] = tested on: Streptococcus sp. 'group A'; test: growth inhibition of control SK(-) GAS strain, dose response, counter-screen for streptokinase expression inhibitor project, luminescence, kanamycin, BacTiterGlo, confirmation (AID 1900); format: functional, organism-based
[15] = biological target: Nucleotide-binding oligomerization domain-containing protein 2 (Homo sapiens, UniProt Q9HC29); test: NOD2 signaling inhibitors, cell-based, luminescence, uHTS, HEK293 (AID 1566); format: functional
HEK293 [16] = test: NOD2 signaling inhibitors in MDP-stimulated cells, cell-based, uHTS, luminescence (AID 2001); format: functional; conditions: Homo sapiens
HEK293 [17] = test: cells; format: functional, cell-based; conditions: Homo sapiens; remark: listed apart in the source
HEK293 [18] = test: cells; format: functional, cell-based; conditions: Homo sapiens; remark: listed apart in the source
Streptococcus = test: Group A Streptococcus viability loss, dose response, counter-screen for streptokinase expression inhibitor project, luminescence, BacTiterGlo (AID 1915); format: functional, organism-based;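 note: potency for reduction of bacterial viability or growth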
Streptokinase A = biological target: T4, Streptokinase A (Streptococcus pyogenes serotype M1, UniProt P10520); test: S. pyogenes streptokinase expression inhibitors, potency, dose response, plasminogen activation absorbance, OD405 (AID 1914); format: functional, Streptococcus pyogenes M1 GAS;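 note: secreted streptokinase activity via plasminogen activation per viability signal from cell pellet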
T4 sequence (P10520 whole entry): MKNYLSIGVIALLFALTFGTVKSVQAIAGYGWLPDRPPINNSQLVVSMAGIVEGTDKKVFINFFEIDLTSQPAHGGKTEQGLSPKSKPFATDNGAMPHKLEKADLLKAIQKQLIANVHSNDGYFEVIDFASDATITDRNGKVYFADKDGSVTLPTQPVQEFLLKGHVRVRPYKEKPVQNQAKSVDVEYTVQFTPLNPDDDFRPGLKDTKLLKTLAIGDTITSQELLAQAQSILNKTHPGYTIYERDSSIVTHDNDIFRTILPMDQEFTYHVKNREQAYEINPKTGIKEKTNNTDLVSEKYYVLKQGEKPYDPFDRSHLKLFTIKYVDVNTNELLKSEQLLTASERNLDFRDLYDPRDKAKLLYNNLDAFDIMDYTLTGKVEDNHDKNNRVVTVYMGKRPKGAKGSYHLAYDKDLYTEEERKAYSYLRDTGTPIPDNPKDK

HEK293 [19] = test: NOD1 signaling inhibitors, primary screen, cell-based, luminescence, uHTS (AID 1578); format: functional; conditions: Homo sapiens
[20] = biological target: Peroxisome proliferator-activated receptor gamma/Nuclear receptor coactivator 2 (Homo sapiens, UniProt P37231); test: TR-FRET dose response biochemical High Throughput Screening assay for agonists of the steroid receptor coactivator 2 (SRC-2) recruitment by the peroxisome proliferator-activated receptor gamma (PPAR gamma): non-selective agonists. [Related pubchem assays: 1297, 1032 ]; format: functional
[21] = biological target: Peroxisome proliferator-activated receptor gamma/Nuclear receptor coactivator 3 (Homo sapiens, UniProt P37231); test: TR-FRET dose response biochemical High Throughput Screening assay for agonists of the steroid receptor coactivator 3 (SRC-3) recruitment by the peroxisome proliferator-activated receptor gamma (PPAR gamma): non-selective agonists. [Related pubchem assays: 1301 (Confirmation screen.), 1048 (Primary screen.)]; format: functional
[22] = biological target: Peroxisome proliferator-activated receptor gamma/Nuclear receptor coactivator 1 (Homo sapiens, UniProt P37231); test: TR-FRET dose response biochemical High Throughput Screening assay for agonists of the steroid receptor coactivator 1 (SRC-1) recruitment by the peroxisome proliferator-activated receptor gamma (PPAR gamma): non-selective agonists. [Related pubchem assays (depositor defined):AID1300, AID1808, AID504735, AID631]; format: protein assay
[23] = growth suppression of beta-catenin-knockout colon cells, dose response, cell-based, HCT116, human colon tumor (AID 1045); format: functional;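 note: HCT116 colon tumor cells with beta catenin knocked out; cells exposed to compound for 60 hours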
[24] = growth suppression of PTEN-null colon cells, dose response, cell-based, HCT116 PTEN knockout (AID 1047); format: functional;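 note: HCT116 colon tumor cells with PTEN knocked out; cells exposed to compound for 60 hours before readout; potency for loss of cell viability measured by luminescence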

Cytochrome P450 3A4, sequence (P08684 whole entry): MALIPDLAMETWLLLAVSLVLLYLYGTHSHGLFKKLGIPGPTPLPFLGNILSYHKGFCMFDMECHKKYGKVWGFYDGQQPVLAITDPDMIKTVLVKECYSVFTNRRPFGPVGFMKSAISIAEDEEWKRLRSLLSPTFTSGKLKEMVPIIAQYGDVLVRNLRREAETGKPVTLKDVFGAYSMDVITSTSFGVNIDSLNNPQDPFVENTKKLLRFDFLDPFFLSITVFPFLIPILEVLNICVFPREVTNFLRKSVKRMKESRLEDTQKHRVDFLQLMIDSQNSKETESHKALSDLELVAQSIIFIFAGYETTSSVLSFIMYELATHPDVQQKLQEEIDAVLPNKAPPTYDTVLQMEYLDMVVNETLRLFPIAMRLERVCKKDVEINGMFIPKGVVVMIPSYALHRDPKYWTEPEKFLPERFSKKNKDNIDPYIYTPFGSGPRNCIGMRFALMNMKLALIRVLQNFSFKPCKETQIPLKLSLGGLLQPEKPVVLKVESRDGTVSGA
DNA damage-inducible transcript 3 protein, sequence (P35639 whole entry): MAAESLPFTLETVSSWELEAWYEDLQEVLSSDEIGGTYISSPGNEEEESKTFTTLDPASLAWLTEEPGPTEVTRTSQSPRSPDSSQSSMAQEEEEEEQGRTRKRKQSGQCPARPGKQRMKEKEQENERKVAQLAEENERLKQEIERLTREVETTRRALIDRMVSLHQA
Nucleotide-binding oligomerization domain-containing protein 2, sequence (Q9HC29 whole entry, the tested form may be a part): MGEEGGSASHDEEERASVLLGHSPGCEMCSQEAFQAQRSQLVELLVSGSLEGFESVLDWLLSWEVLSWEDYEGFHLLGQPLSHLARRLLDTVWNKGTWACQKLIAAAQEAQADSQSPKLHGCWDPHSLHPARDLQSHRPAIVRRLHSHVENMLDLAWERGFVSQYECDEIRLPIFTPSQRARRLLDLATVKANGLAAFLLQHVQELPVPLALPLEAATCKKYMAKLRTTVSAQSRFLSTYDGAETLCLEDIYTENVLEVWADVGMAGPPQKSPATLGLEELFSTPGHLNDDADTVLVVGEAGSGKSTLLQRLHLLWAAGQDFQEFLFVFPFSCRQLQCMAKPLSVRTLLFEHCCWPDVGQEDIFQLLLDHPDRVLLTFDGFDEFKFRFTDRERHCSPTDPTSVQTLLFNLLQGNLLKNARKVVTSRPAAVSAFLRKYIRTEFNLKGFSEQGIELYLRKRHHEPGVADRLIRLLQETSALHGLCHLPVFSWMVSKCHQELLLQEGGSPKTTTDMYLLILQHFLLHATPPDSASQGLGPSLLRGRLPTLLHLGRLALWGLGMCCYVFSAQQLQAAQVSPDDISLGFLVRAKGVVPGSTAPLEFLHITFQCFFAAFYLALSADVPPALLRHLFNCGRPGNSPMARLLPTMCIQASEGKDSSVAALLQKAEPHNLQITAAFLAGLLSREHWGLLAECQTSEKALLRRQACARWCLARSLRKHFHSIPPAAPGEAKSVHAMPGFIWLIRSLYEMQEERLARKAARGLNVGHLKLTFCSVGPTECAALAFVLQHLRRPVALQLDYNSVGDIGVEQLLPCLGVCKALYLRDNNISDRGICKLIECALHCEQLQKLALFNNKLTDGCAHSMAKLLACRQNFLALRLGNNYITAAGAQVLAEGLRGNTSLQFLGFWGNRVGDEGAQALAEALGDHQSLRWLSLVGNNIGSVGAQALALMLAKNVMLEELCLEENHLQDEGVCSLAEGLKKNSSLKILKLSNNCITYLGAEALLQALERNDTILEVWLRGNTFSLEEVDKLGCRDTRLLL
Cytochrome P450 2C19, sequence (P33261 whole entry): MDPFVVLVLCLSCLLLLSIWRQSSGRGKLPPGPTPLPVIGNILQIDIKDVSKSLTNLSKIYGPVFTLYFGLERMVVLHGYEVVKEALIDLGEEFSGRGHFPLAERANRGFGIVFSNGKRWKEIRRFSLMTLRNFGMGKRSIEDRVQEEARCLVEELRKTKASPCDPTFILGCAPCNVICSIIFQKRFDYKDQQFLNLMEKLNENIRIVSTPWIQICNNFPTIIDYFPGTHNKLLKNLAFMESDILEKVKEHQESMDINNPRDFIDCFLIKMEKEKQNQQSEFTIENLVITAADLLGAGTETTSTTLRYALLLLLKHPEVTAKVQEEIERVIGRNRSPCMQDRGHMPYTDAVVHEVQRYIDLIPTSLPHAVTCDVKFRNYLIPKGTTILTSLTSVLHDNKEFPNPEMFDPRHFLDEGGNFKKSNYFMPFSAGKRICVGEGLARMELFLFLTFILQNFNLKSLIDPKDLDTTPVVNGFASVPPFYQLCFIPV
Peroxisome proliferator-activated receptor gamma/Nuclear receptor coactivator 2, sequence (P37231 whole entry): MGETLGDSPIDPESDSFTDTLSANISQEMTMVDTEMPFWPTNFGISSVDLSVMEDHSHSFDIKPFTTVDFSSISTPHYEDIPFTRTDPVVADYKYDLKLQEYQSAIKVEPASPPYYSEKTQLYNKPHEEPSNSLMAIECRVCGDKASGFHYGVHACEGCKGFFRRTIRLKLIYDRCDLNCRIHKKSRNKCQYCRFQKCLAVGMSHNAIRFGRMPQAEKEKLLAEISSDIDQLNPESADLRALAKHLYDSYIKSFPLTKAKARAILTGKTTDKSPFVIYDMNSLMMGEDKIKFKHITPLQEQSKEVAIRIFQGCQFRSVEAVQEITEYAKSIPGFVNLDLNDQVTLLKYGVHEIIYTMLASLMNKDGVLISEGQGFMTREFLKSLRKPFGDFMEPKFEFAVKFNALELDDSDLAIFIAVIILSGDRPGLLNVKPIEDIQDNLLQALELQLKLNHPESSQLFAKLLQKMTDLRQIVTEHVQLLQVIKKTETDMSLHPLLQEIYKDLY
Peroxisome proliferator-activated receptor gamma/Nuclear receptor coactivator 2, sequence (Q15596 whole entry, further chain): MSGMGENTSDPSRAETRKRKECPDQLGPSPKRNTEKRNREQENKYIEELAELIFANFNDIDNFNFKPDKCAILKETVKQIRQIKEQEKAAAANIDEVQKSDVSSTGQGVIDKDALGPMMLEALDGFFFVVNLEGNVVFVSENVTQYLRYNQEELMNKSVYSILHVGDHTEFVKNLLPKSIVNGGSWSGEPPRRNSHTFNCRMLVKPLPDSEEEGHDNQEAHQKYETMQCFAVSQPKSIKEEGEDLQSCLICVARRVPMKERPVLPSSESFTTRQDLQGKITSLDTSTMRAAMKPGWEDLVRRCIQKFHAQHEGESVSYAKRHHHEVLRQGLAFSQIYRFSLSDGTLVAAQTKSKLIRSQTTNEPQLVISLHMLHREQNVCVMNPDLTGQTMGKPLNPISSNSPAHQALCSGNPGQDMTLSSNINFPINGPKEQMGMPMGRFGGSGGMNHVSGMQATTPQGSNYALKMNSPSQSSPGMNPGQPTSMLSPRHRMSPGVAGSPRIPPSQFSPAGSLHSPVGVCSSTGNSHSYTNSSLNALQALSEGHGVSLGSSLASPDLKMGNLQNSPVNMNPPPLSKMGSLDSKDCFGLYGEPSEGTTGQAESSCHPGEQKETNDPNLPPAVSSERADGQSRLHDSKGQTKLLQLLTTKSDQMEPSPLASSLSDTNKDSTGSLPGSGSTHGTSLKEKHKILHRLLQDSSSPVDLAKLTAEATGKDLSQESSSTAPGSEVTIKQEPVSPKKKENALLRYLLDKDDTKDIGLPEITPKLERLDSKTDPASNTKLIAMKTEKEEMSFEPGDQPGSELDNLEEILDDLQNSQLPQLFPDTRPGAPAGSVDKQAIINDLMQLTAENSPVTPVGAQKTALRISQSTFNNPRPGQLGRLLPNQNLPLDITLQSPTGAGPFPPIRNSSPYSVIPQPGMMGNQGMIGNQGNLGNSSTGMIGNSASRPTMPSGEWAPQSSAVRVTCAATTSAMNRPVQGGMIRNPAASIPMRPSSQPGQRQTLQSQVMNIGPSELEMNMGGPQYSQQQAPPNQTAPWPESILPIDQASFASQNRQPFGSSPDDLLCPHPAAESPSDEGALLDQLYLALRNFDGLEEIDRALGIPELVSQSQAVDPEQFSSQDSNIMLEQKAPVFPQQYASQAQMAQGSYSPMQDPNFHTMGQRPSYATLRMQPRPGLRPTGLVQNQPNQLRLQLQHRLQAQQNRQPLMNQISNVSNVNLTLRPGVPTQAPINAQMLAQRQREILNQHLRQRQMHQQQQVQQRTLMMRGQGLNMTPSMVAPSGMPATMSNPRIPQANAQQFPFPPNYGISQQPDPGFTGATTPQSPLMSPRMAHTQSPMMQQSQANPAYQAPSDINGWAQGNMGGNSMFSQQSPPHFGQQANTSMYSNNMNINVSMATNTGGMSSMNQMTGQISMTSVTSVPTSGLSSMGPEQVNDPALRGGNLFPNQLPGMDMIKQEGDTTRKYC

C#C[C@@]1(OC(C)=O)CC[C@@H]2[C@@H]3CCC4=C[C@@H](OC(C)=O)CC[C@H]4[C@H]3CC[C@]21C
AC50 (Cytochrome P450 3A4): inconclusive

O=C(Nc1nnc(COc2ccc(Cl)cc2)s1)c1ccc([N+](=O)[O-])cc1
AC50 (Cytochrome P450 3A4): inconclusive
AC50 (Cytochrome P450 2C19): inconclusive

COc1ccc(O)c(/C=N/NC(=O)c2ccc(CSc3nc(C)cc(C)n3)cc2)c1
AC50 [1]: 9.31 µM (active)
EC50 [2]: > 150 µM (inactive)
EC50 [3]: 27.7 µM (active)
EC50 (BJ [4]): 17.5 µM (inconclusive)
EC50 (BJ [5]): 20.6 µM (active)
EC50 (BJ [6]): > 75 µM (not active)
EC50 (cells [7]): 24 µM (active)
EC50 (cells [8]): > 350 µM (not active)
AC50 (INS1): 4.6 µM (active)
EC50 [9]: > 38 µM (not active)

COC(=O)CN1C(=S)N(Cc2ccccc2)C(=O)C1CC(=O)Nc1ccc(Br)cc1 (configuration not stated)
Absolute IC50 (CHOP) [10]: 10 µM
IC50 (Protein skinhead-1): > 100 µM (inactive)

CCOC(=O)N1CCN(C(=O)c2ccc3c(=O)n(-c4ccc(OC)cc4)c(=S)[nH]c3c2)CC1
AC50 (Cytochrome P450 1A2): 39.8 µM (inconclusive)
AC50 (Cytochrome P450 3A4): inconclusive

CC1(C)Cc2nc3sc4c(SCC(=O)O)ncnc4c3cc2CO1
AC50 (HEK293 [11]): 4.58 µM (active)
AC50 [12]: 2.6 µM (active)

O=C(c1cnccn1)N1CCC2(CC1)CN(c1ccccn1)C2
AC50 (Cytochrome P450 3A4): inconclusive

CN(C)C=O.N#Cc1ccc(Cl)cc1NC(=O)CSc1nc(O)c2c(C(F)(F)F)cc(-c3cccs3)nc2n1
IC50 (HEK293 [13]): 9.55 µM (active)
EC50 [14]: 7.34 µM (active)
EC50 [15]: 8.42 µM (active)
IC50 (HEK293 [16]): 6.22 µM (inactive)
IC50 (HEK293 [17]): > 20 µM (inactive)
IC50 (HEK293 [18]): > 20 µM (inactive)
EC50 (Streptococcus): > 150 µM (not active)
EC50 (Streptokinase A): > 150 µM (not active)
EC50 (HEK293 [19]): 5.63 µM (active)

CCn1c(=O)cc(SCC(=O)NCc2ccccn2)c2ccccc21
EC50 [20]: > 79.4 µM (not active)
EC50 [21]: > 79.4 µM (not active)
EC50 [22]: > 79.4 µM (inactive)

COc1cc(O)c2c(=O)c3c(O)c(O)ccc3oc2c1OC
AC50 [12]: 2.06 µM (active)

Cn1c(=O)c(-c2ccc(Cl)cc2)nc2cnc(Oc3cccc(Cl)c3)nc21
AC50 (Cytochrome P450 1A2): 0.251 µM (inconclusive)
AC50 (Cytochrome P450 3A4): inconclusive

CCN(C(=O)c1cnc(N2CCN(c3ncccn3)CC2)c2ccccc12)c1cccc(Cl)c1
AC50 (Cytochrome P450 1A2): 15.8 µM (inconclusive)
IC50 (HEK293 [13]): 3.5 µM (active)
EC50 [15]: 7.19 µM (active)
IC50 (HEK293 [16]): 4.17 µM (active)
IC50 (HEK293 [17]): 8.34 µM (active)
IC50 (HEK293 [18]): > 20 µM (inactive)
EC50 (HEK293 [19]): 5.39 µM (active)

CSc1nc(O)c2cnn(-c3ccc(C)c(C)c3)c2n1
EC50 [23]: 27.6 µM (active)
Absolute IC50 (CHOP) [10]: 10 µM
EC50 [24]: 26.2 µM (active)

COc1ccc(/C=C2\SC(=N)NC2=O)cc1
AC50 [12]: 0.038 µM (active)

O=C(Nc1ccc(Cl)cc1)Nc1ccc2c(c1)N1CCN=C1S2
AC50 [12]: 1.07 µM (active)
